# From US20180244699A1, “1-HYDROXY-3H-2,1-BENZOXABOROLE DERIVATIVES AND THEIR USE AS MICROBIOCIDES” (Syngenta Participations AG, priority 2015, published 2018)
# Tests used:
# Format in all cases: cell-based
# [1] = system: Gaeumannomyces graminis; experiment: Gaeumannomyces graminis / liquid culture (take-all of cereals); settings: growth inhibition photometrically 4-5 days after application, compared to untreated control
# Method: (§1) 6. Gaeumannomyces Graminis/Liquid Culture (Take-all of Cereals) Mycelial fragments of the fungus from cryogenic storage were directly mixed into nutrient broth (PDB potato dextrose broth). After placing a (DMSO) solution of test compound into a microtiter plate (96-well format), the nutrient broth containing the fungal spores is added. The test plates are incubated at 24° C. and the inhibition of growth is determined photometrically 4-5 days after application.
# [2] = system: Pythium ultimum; experiment: Pythium ultimum / liquid culture (seedling damping off); settings: Globisporangium ultimum, growth inhibition photometrically 2-3 days after application, compared to untreated control
# Method: 15. Pythium ultimum/Liquid Culture (Seedling Damping Off) Mycelia fragments and oospores of a newly grown liquid culture of the fungus are directly mixed into nutrient broth (PDB potato dextrose broth). After placing a (DMSO) solution of test compound into a microtiter plate (96-well format), the nutrient broth containing the fungal mycelia/spore mixture is added. The test plates are incubated at 24° C. and the inhibition of growth is determined photometrically 2-3 days after application.
# [3] = system: Monographella nivalis (Microdochium nivale); experiment: Monographella nivalis (Microdochium nivale) / liquid culture (foot rot cereals); settings: growth inhibition photometrically 4-5 days after application, compared to untreated control
# Method: as §1, with “8. Monographella nivalis (Microdochium nivale)/Liquid” for “6. Gaeumannomyces Graminis/Liquid”, “(Foot Rot” for “(Take-all of”, “Conidia” for “Mycelial fragments”, “are” for “were”
Compound,inhibition of growth at 20 ppm [1] [%],inhibition of growth at 20 ppm [2] [%],inhibition of growth at 20 ppm [3] [%]
"COc1c(C(=O)Oc2ccc(C#N)cc2)ccc2c1B(O)OC2 [Compound 14, (4-cyanophenyl) 1-hydroxy-7-methoxy-3H-2,1-benzoxaborole-6-carboxylate]",≥ 80,≥ 80,–
"COc1c(C(=O)NCc2c(C)cccc2Cl)ccc2c1B(O)OC2 [Compound 31, N-[(2-chloro-6-methyl-phenyl)methyl]-1-hydroxy-7-methoxy-3H-2,1-benzoxaborole-6-carboxamide]",–,≥ 80,≥ 80
"CCOc1ccc(NC(=O)c2ccc3c(c2OC)B(O)OC3)cc1Cl [Compound 41, N-(3-chloro-4-ethoxy-phenyl)-1-hydroxy-7-methoxy-3H-2,1-benzoxaborole-6-carboxamide]",–,–,≥ 80
"COc1c(C(=O)Nc2nc(C(C)C)ncc2C)ccc2c1B(O)OC2 [Compound 45, 1-hydroxy-N-(2-isopropyl-5-methyl-pyrimidin-4-yl)-7-methoxy-3H-2,1-benzoxaborole-6-carboxamide]",–,≥ 80,≥ 80
"COc1c(C(=O)Nc2n[nH]c(C(F)(F)F)n2)ccc2c1B(O)OC2 [Compound 46, 1-hydroxy-7-methoxy-N-[5-(trifluoromethyl)-1H-1,2,4-triazol-3-yl]-3H-2,1-benzoxaborole-6-carboxamide]",–,≥ 80,≥ 80
"COc1c(C(=O)N(C)c2nnc(C(F)(F)F)s2)ccc2c1B(O)OC2 [Compound 49, 1-hydroxy-7-methoxy-N-methyl-N-[5-(trifluoromethyl)-1,3,4-thiadiazol-2-yl]-3H-2,1-benzoxaborole-6-carboxamide]",–,≥ 80,≥ 80
"COC(=O)c1cccc(NC(=O)c2ccc3c(c2OC)B(O)OC3)c1 [Compound 52, methyl 3-[(1-hydroxy-7-methoxy-3H-2,1-benzoxaborole-6-carbonyl)amino]benzoate]",–,≥ 80,≥ 80
"COc1c(C(=O)Nc2ccc(Cl)cc2F)ccc2c1B(O)OC2 [Compound 54, N-(4-chloro-2-fluoro-phenyl)-1-hydroxy-7-methoxy-3H-2,1-benzoxaborole-6-carboxamide]",–,–,≥ 80
"COc1c(C(=O)Nc2ccc(OC(F)(F)F)cc2)ccc2c1B(O)OC2 [Compound 55, 1-hydroxy-7-methoxy-N-[4-(trifluoromethoxy)phenyl]-3H-2,1-benzoxaborole-6-carboxamide]",–,–,≥ 80
"COc1c(C(=O)NC(C)c2ccc(F)cc2)ccc2c1B(O)OC2 (centres unmarked) [Compound 57, N-[1-(4-fluorophenyl)ethyl]-1-hydroxy-7-methoxy-3H-2,1-benzoxaborole-6-carboxamide]",–,≥ 80,≥ 80
"CCCNC(=O)c1ccc2c(c1OC)B(O)OC2 [Compound 63, 1-hydroxy-7-methoxy-N-propyl-3H-2,1-benzoxaborole-6-carboxamide]",–,≥ 80,≥ 80
"COc1c(C(=O)Nc2ccc(C)cn2)ccc2c1B(O)OC2 [Compound 66, 1-hydroxy-7-methoxy-N-(5-methyl-2-pyridyl)-3H-2,1-benzoxaborole-6-carboxamide]",–,≥ 80,≥ 80
"COc1c(C(=O)OCC(OC)c2ccccc2)ccc2c1B(O)OC2 (centres unmarked) [Compound 75, (2-methoxy-2-phenyl-ethyl) 1-hydroxy-7-methoxy-3H-2,1-benzoxaborole-6-carboxylate]",≥ 80,≥ 80,≥ 80
"COc1c(C(=O)OCC2CCC=CO2)ccc2c1B(O)OC2 (centres unmarked) [Compound 77, 3,4-dihydro-2H-pyran-2-ylmethyl 1-hydroxy-7-methoxy-3H-2,1-benzoxaborole-6-carboxylate]",≥ 80,≥ 80,≥ 80
"COc1c(C(=O)OCC#Cc2ccc(Cl)cc2)ccc2c1B(O)OC2 [Compound 80, 3-(4-chlorophenyl)prop-2-ynyl 1-hydroxy-7-methoxy-3H-2,1-benzoxaborole-6-carboxylate]",≥ 80,≥ 80,≥ 80
"COc1c(C(=O)OCCOc2ccc(Cl)cc2)ccc2c1B(O)OC2 [Compound 81, 2-(4-chlorophenoxy)ethyl 1-hydroxy-7-methoxy-3H-2,1-benzoxaborole-6-carboxylate]",≥ 80,≥ 80,≥ 80

Compound,inhibition of growth at 20 ppm [1] [%],inhibition of growth at 20 ppm [2] [%],inhibition of growth at 20 ppm [3] [%]
"COc1c(C(=O)OCc2ncc(Cl)cc2F)ccc2c1B(O)OC2 [Compound 87, (5-chloro-3-fluoro-2-pyridyl)methyl 1-hydroxy-7-methoxy-3H-2,1-benzoxaborole-6-carboxylate]",≥ 80,≥ 80,–
"COc1c(C(=O)OCc2cccc(C(F)(F)F)c2)ccc2c1B(O)OC2 [Compound 88, [3-(trifluoromethyl)phenyl]methyl 1-hydroxy-7-methoxy-3H-2,1-benzoxaborole-6-carboxylate]",≥ 80,≥ 80,≥ 80
"COC(=O)Nc1ccc(COC(=O)c2ccc3c(c2OC)B(O)OC3)cc1 [Compound 90, [4-(methoxycarbonylamino)phenyl]methyl 1-hydroxy-7-methoxy-3H-2,1-benzoxaborole-6-carboxylate]",≥ 80,≥ 80,≥ 80
"COc1c(C(=O)OC(C)c2cc(C(F)(F)F)n[nH]2)ccc2c1B(O)OC2 (centres unmarked) [Compound 91, 1-[3-(trifluoromethyl)-1H-pyrazol-5-yl]ethyl 1-hydroxy-7-methoxy-3H-2,1-benzoxaborole-6-carboxylate]",≥ 80,≥ 80,–
"COc1c(C(=O)OCc2c(Cl)cc(O)cc2Cl)ccc2c1B(O)OC2 [Compound 92, (2,6-dichloro-4-hydroxy-phenyl)methyl 1-hydroxy-7-methoxy-3H-2,1-benzoxaborole-6-carboxylate]",≥ 80,≥ 80,≥ 80
"COc1c(C(=O)OCCON=C(C)C)ccc2c1B(O)OC2 [Compound 93, 2-(isopropylideneamino)oxyethyl 1-hydroxy-7-methoxy-3H-2,1-benzoxaborole-6-carboxylate]",≥ 80,≥ 80,–
"COc1c(C(=O)OCC(C)(C)c2nnc(S)nc2O)ccc2c1B(O)OC2 [Compound 95, [2-(5-hydroxy-3-sulfanyl-1,2,4-triazin-6-yl)-2-methyl-propyl] 1-hydroxy-7-methoxy-3H-2,1-benzoxaborole-6-carboxylate]",≥ 80,≥ 80,≥ 80
"COc1c(C(=O)OCc2nc(C)cs2)ccc2c1B(O)OC2 [Compound 96, (4-methylthiazol-2-yl)methyl 1-hydroxy-7-methoxy-3H-2,1-benzoxaborole-6-carboxylate]",≥ 80,≥ 80,≥ 80
"COc1c(C(=O)OCn2cnc(Cl)c2Cl)ccc2c1B(O)OC2 [Compound 97, (4,5-dichloroimidazol-1-yl)methyl 1-hydroxy-7-methoxy-3H-2,1-benzoxaborole-6-carboxylate]",≥ 80,≥ 80,–
"CCOC(=O)CC(OC(=O)c1ccc2c(c1OC)B(O)OC2)C(F)(F)F (centres unmarked) [Compound 101, [3-ethoxy-3-oxo-1-(trifluoromethyl)propyl] 1-hydroxy-7-methoxy-3H-2,1-benzoxaborole-6-carboxylate]",≥ 80,≥ 80,–
"COc1c(C(=O)OCCn2nc(C)cc2OC(C)=O)ccc2c1B(O)OC2 [Compound 102, 2-(5-acetoxy-3-methyl-pyrazol-1-yl)ethyl 1-hydroxy-7-methoxy-3H-2,1-benzoxaborole-6-carboxylate]",≥ 80,≥ 80,–
"COc1c(C(=O)OCc2cccc(C)n2)ccc2c1B(O)OC2 [Compound 119, (6-methyl-2-pyridyl)methyl 1-hydroxy-7-methoxy-3H-2,1-benzoxaborole-6-carboxylate]",–,≥ 80,≥ 80
"COc1c(C(=O)OCc2cc(Cl)ccc2Cl)ccc2c1B(O)OC2 [Compound 120, (2,5-dichlorophenyl)methyl 1-hydroxy-7-methoxy-3H-2,1-benzoxaborole-6-carboxylate]",≥ 80,–,–
"COc1c(C(=O)OCCc2ccccn2)ccc2c1B(O)OC2 [Compound 123, 2-(2-pyridyl)ethyl 1-hydroxy-7-methoxy-3H-2,1-benzoxaborole-6-carboxylate]",–,≥ 80,–
"COc1cc(COC(=O)c2ccc3c(c2OC)B(O)OC3)ccc1O [Compound 126, (4-hydroxy-3-methoxy-phenyl)methyl 1-hydroxy-7-methoxy-3H-2,1-benzoxaborole-6-carboxylate]",–,≥ 80,–
